Data published in patent US20260199350A1, “FLAVONES, QUINOLINONES, QUINAZOLINONES, AND AURONES, AND USES IN CK2-MEDIATED DISEASES” (Salk Institute for Biological Studies, priority 2022, published 2026).
Where two headings read alike, the source gives them in different places.

What was measured:
CK2A1 = target: T1, CK2A1 (Homo sapiens, UniProt P68400); test: Radiometric kinase assay (Eurofins), CK2A1; type: biochemical; conditions: read-out: CK2A1 RAD IC50
T1 construct: purchased Eurofins
Source text: FIGS. 4A-4F characterize flavones for in vitro and in-cell CK2 inhibition. […] Representative of two independent experiments. […] Nonlinear fit was used to calculate IC50. […] Nonlinear fit was used to calculate IC50. […] Nonlinear fit was used to calculate IC50. […] Normalized to DMSO, data are representative of three independent experiments.
(§1) • ^1Radiometric kinase assay from Eurofins. Performed in astrocytes with a Promega Lumit IL-6 kit.

CK2A2 = target: T2, CK2A2 (Homo sapiens, UniProt P19784); test: Radiometric kinase assay (Eurofins), CK2A2; type: biochemical; conditions: read-out: CK2A2 RAD IC50
T2 construct: purchased Eurofins
Source text: as §1

IL-6 secretion = IL-6 secretion assay in astrocytes (Promega Lumit IL-6 kit); type: cell-based, human; conditions: Homo sapiens, Astrocyte; Table 2; astrocytes; read-out: IL6-Inhib.
Description: IL-6 secretion assay. HCAs were plated at 20,000 cells per well in white clear bottom 96-well plates. Two to three days later, media was removed and replaced with media containing 10 ng/mL IL1B and compound dilution series. Five hours later, plates were processed using the Lumit IL-6 Assay Kit (Promega W6030) according to the manufacturer's instructions.
• ^1Radiometric kinase assay from Eurofins. Performed in astrocytes with a Promega Lumit IL-6 kit. A series of halogenated flavones was generated and assayed (Table 3).

T1 sequence (P68400 whole entry): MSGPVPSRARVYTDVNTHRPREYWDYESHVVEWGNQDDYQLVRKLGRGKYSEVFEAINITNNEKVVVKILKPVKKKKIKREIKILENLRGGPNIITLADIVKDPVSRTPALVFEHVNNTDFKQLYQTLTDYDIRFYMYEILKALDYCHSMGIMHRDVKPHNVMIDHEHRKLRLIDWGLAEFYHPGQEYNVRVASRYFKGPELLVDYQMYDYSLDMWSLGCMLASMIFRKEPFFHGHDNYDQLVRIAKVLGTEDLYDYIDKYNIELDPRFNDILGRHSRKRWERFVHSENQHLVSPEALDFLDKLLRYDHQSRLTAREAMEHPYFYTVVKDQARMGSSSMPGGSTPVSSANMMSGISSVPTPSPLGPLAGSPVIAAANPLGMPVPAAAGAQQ
T2 sequence (P19784 whole entry): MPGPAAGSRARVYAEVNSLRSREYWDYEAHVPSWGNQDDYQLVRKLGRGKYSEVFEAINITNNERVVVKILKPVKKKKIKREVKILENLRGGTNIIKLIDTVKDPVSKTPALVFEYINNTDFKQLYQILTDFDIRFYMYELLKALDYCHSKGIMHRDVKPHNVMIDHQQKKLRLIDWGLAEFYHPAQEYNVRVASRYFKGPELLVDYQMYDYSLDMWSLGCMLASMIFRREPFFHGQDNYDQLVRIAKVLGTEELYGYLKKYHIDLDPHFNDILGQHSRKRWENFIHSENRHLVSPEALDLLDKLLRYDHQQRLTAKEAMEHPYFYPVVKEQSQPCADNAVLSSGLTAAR

SMILES: COc1ccc2c(c1Br)O/C(=C\c1ccc(O)c(OC)n1)C2=O [Compound 1188A]
- IC50 (CK2A1; Table 12): 0.465 µM
- IC50 (CK2A2; Table 12): 0.144 µM

SMILES: COc1cc(/C=C2\Oc3c(ccc(OC)c3Br)C2=O)ncc1O [Compound 1189A]
- IC50 (CK2A1; Table 12): 0.117 µM
- IC50 (CK2A2; Table 12): 0.149 µM

SMILES: COc1ccc2c(c1Br)O/C(=C\c1cc(Br)c(O)cn1)C2=O [Compound 1190B]
- IC50 (CK2A1; Table 12): 0.184 µM
- IC50 (CK2A2; Table 12): 0.046 µM

SMILES: O=C(O)c1ccc(/C=C2\Oc3c(Br)cccc3C2=O)cc1 [Compound 1210A]
- IC50 (CK2A1; Table 12): 0.703 µM
- IC50 (CK2A2; Table 12): 0.06 µM

SMILES: C#Cc1cc(-c2cc(=O)c3cc(Br)c(OC)c(Br)c3o2)ccc1O [Compound 1212A]
- IC50 (CK2A1; Table 12): > 5 µM
- IC50 (CK2A2; Table 12): 1.26 µM

SMILES: O=C1/C(=C/c2ccc(O)c(C3CC3)c2)Oc2c(Br)cccc21 [Compound 1220A]
- IC50 (CK2A1; Table 12): 4.45 µM
- IC50 (CK2A2; Table 12): > 5 µM

SMILES: C#Cc1cc(/C=C2\Oc3c(Br)cc(Br)cc3C2=O)ccc1O [Compound 1224A]
- IC50 (CK2A1; Table 12): 0.177 µM
- IC50 (CK2A2; Table 12): 0.077 µM

SMILES: COc1nc(/C=C2\Oc3c(Br)cccc3C2=O)ccc1O [Compound 1226A]
- IC50 (CK2A1; Table 12): 0.131 µM
- IC50 (CK2A2; Table 12): 0.091 µM

SMILES: C#Cc1cc(/C=C2\Oc3c(cc(Br)c(OC)c3Br)C2=O)ccc1O [Compound 1229A]
- IC50 (CK2A1; Table 12): 0.151 µM
- IC50 (CK2A2; Table 12): 0.049 µM

SMILES: C#Cc1cc(/C=C2\Oc3c(ccc(OC)c3Br)C2=O)ccc1O [Compound 1231A]
- IC50 (CK2A1; Table 12): 0.18 µM
- IC50 (CK2A2; Table 12): 0.206 µM

SMILES: COc1cc(/C=C2\Oc3c(Br)cccc3C2=O)ncc1O [Compound 1236B]
- IC50 (CK2A1; Table 12): 0.172 µM
- IC50 (CK2A2; Table 12): 0.141 µM

SMILES: O=C1/C(=C/c2cc(Br)c(O)cn2)Oc2c(Br)cccc21 [Compound 1237A]
- IC50 (CK2A1; Table 12): 0.067 µM
- IC50 (CK2A2; Table 12): 0.057 µM

SMILES: COc1cc(-c2cc(=O)c3cc(Br)cc(Br)c3o2)ncc1O [JKT.77A]
- IC50 (CK2A1; Table 2): 0.021 µM
- IC50 (CK2A2; Table 2): 0.019 µM
- IC50 (IL-6 secretion): 6.7 µM

SMILES: O=c1cc(-c2ccc(O)c(C(F)(F)F)c2)oc2c(Br)cc(Br)cc12 [JKT.460A]
- IC50 (CK2A1; Table 2): 0.609 µM
- IC50 (CK2A2; Table 2): 0.129 µM
- IC50 (IL-6 secretion): 3 µM

SMILES: O=c1cc(-c2cc(F)c(O)c(F)c2)oc2c(Br)cc(Br)cc12 [JKT.461B]
- IC50 (CK2A1; Table 2): 0.076 µM
- IC50 (CK2A2; Table 2): 0.032 µM
- IC50 (IL-6 secretion): > 10 µM

SMILES: Cn1c(-c2ccc(O)c(Br)c2)nc2c(Br)cccc2c1=O [JKT.866A]
- IC50 (CK2A1; Table 8, quinazolinones): 4.59 µM
- IC50 (CK2A2; Table 8, quinazolinones): > 5 µM

SMILES: Cn1c(-c2ccc(O)c(Cl)c2)nc2c(Br)cccc2c1=O [JKT.870A]
- IC50 (CK2A1; Table 8, quinazolinones): > 5 µM
- IC50 (CK2A2; Table 8, quinazolinones): > 5 µM

SMILES: Cn1c(-c2cc(F)c(O)c(F)c2)nc2c(Br)cccc2c1=O [JKT.873A]
- IC50 (CK2A1; Table 8, quinazolinones): 0.566 µM
- IC50 (CK2A2; Table 8, quinazolinones): 0.649 µM

SMILES: Cn1c(-c2ccc(O)c(C(F)(F)F)c2)nc2c(Br)cc(Br)cc2c1=O [JKT.874D]
- IC50 (CK2A1; Table 8, quinazolinones): > 5 µM
- IC50 (CK2A2; Table 8, quinazolinones): > 5 µM

SMILES: Cn1c(-c2ccc(O)c(C(F)(F)F)c2)nc2c(Br)cccc2c1=O [JKT.875A]
- IC50 (CK2A1; Table 8, quinazolinones): > 5 µM
- IC50 (CK2A2; Table 8, quinazolinones): > 5 µM

SMILES: COc1cc(-c2nc3c(Br)cc(Br)cc3c(=O)n2C)ccc1O [JKT.876A]
- IC50 (CK2A1; Table 8, quinazolinones): > 5 µM
- IC50 (CK2A2; Table 8, quinazolinones): > 5 µM

SMILES: COc1cc(-c2nc3c(Br)cccc3c(=O)n2C)ccc1O [JKT.877A]
- IC50 (CK2A1; Table 8, quinazolinones): > 5 µM
- IC50 (CK2A2; Table 8, quinazolinones): > 5 µM

SMILES: O=c1[nH]c(-c2ccc(O)c(Br)c2)nc2c(Br)nc(Br)cc12 [JKT.880B]
- IC50 (CK2A1; Table 8, quinazolinones): 0.095 µM
- IC50 (CK2A2; Table 8, quinazolinones): 0.242 µM

SMILES: O=c1cc(-c2ccc(O)c(Br)c2)oc2c(Br)nc(Br)cc12 [JKT.909A]
- IC50 (CK2A1; Table 4): 0.006 µM
- IC50 (CK2A2; Table 4): 0.006 µM

SMILES: O=c1cc(-c2cc(Br)c(O)cn2)oc2c(Br)cc(Br)cc12 [JKT.923A]
- IC50 (CK2A1; Table 4): 0.011 µM
- IC50 (CK2A2; Table 4): 0.008 µM

SMILES: O=c1[nH]c(-c2cc(Br)c(O)cn2)nc2c(Br)cc(Br)cc12 [JKT.932F]
- IC50 (CK2A1; Table 8, quinazolinones): 0.107 µM
- IC50 (CK2A2; Table 8, quinazolinones): 0.099 µM

SMILES: O=c1cc(-c2ccc(O)c(Br)c2)[nH]c2c(Br)cc(Br)cc12 [JKT.944A]
- IC50 (CK2A1; Table 6, quinolinones): 0.128 µM
- IC50 (CK2A2; Table 6, quinolinones): 0.123 µM

SMILES: O=c1[nH]c(-c2ccc(O)c(Cl)n2)nc2c(Br)cc(Br)cc12 [JKT.956A]
- IC50 (CK2A1; Table 8, quinazolinones): 0.132 µM
- IC50 (CK2A2; Table 8, quinazolinones): 0.105 µM

SMILES: COc1nc(-c2nc3c(Br)cc(Br)cc3c(=O)[nH]2)ccc1O [JKT.968C]
- IC50 (CK2A1; Table 8, quinazolinones): 0.027 µM
- IC50 (CK2A2; Table 8, quinazolinones): 0.033 µM

SMILES: COc1nc(-c2nc3c(Br)cccc3c(=O)[nH]2)ccc1O [JKT.975A]
- IC50 (CK2A1; Table 8, quinazolinones): 0.026 µM
- IC50 (CK2A2; Table 8, quinazolinones): 0.033 µM

SMILES: O=c1cc(-c2cc(Br)c(O)cn2)oc2c(Br)cccc12 [JKT.980A]
- IC50 (CK2A1; Table 4): 0.053 µM
- IC50 (CK2A2; Table 4): 0.055 µM

SMILES: COc1nc(-c2nc3c(Br)cc(Br)cc3c(=O)n2C)ccc1O [JKT.983A]
- IC50 (CK2A1; Table 8, quinazolinones): 0.677 µM
- IC50 (CK2A2; Table 8, quinazolinones): 0.9 µM
